Results published in patent publication US8921365B2, “Pharmaceutical composition, substrate comprising a pharmaceutical composition, and use of a pharmaceutical composition” (priority 2007, dated 2014).
Read-outs that look alike come from different tables or passages of the source.

What was measured:
[1] = test system: S. aureus BAA44; assay: Acute infection of osteoblastic MG63 cells without lysostaphin, CFU per well of intracellular and adhered bacteria; format: cell-based, Staphylococcus aureus; details: for effect on CFU per well of intracellular and adhered S. aureus BAA44: 18 h, FIG. 6
Protocol: (§1) Osteoblastic MG63 cells were detached with the cell detachment medium Accutase 24 hours before infection. The cell number was determined using the Neubauer counting chamber. Cells were seeded onto uncoated 24 well plates with a cell density of 1.5×10^4 cells/cm^2 in 1 ml DMEM (Dulbecco's Modified Eagle's Medium) with 10% FCS (fetal calf serum), 1% Glutamax-I and 1% Natrium Pyruvat and incubated at 37° C. and 5% CO2.
The cell culture supernatant of the osteoblastic MG63 cells was removed with a pipette from the wells. 1 ml containing 1×10^6 S. aureus BAA44 CFU was added to each well containing also antibiotics having the following compositions: • 50 μg/ml vancomycin • 2.5 μg/ml rifampin • 1.25-10 μg/ml daptomycin • and their mixtures in different ratios as given below.
The combined osteoblastic cells, bacteria, and antibiotic compositions were incubated for 18 h at 37° C. under 5% CO2 atmosphere.
Afterwards the cells were washed once with PBS pH 7.4 (phosphate buffer solution) followed by lysis with 1 ml 0.1% Triton X100 in ringer's solution. The lysates were thoroughly resuspended with a pipette. Only one 24 well plate was handled and the other plates were stored at 4° C. in order to minimize bacterial growth in the lysate.
(§2) The lower the CFU value is the lower is the infection rate of the osteoblastic cells with S. aureus BAA44. This correlates to the efficacy of the added antibiotic.

[2] = test system: S. aureus ATTC 6538P in osteoblastic MG63 cells; assay: Intracellular infection of osteoblastic MG63 cells after lysostaphin, metabolic activity (MTT, absorbance 540 nm); details: 24 h
[3] = test system: S. aureus BAA44 in osteoblastic MG63 cells; assay: Intracellular infection of osteoblastic MG63 cells after lysostaphin, cell lysis and intracellular CFU count; format: cell-based, Staphylococcus aureus; details: 24 h; fosfomycin 50-400 μg/ml, rifampin 2.5-40 μg/ml, mixtures in varying ratios; FIG. 4a-g
Protocol: Only one 24 well plate was handled and the other plates were stored at 4° C. in order to minimize bacterial growth in the lysate.
as §2

[4] = test system: S. aureus ATTC 6538P; assay: Extracellular infection of osteoblastic MG63 cells, CFU in cell culture supernatant; format: cell-based, Staphylococcus aureus; details: 24 h; 100 μg/ml gentamicin, 1 μg/ml rifampin, 100 μg/ml fosfomycin disodium, alone or combined with rifampin; FIG. 1
Protocol: as §1
The cell culture supernatant of the osteoblastic MG63 cells was removed with a pipette from the wells. 1 ml containing 1×10^6 S. aureus ATTC 6538P cells was added to each well. Two 24 well plates were incubated with S. aureus ATTC 6538P. The combined osteoblastic cells and bacteria were incubated for 1.5 h at 37° C. under 5% CO2 atmosphere. The presence of bacteria was determined using a microscope.
After 1.5 h the supernatant was removed and the wells were carefully washed twice with 37° C. warm DMEM without additives. It was microscopically checked, if not too many cells were detached during the washing procedure.
After incubation for 24 h, 100 μl of the cell culture supernatant was streaked out on Caso agar plates (Casein-peptone soymeal-peptone broth) directly, e.g. in case of rifampin, fosfomycin, rifampin/fosfomycin and rifmpicin/gentamicin, or after appropriate dilution, e.g. 1:100 in case of gentamicin, and incubated overnight at 37° C. […]

[5] = test system: S. aureus BAA44; assay: as above; format: cell-based, Staphylococcus aureus; details: 24 h; 100 μg/ml vancomycin, 10 μg/ml rifampin, 100 μg/ml fosfomycin, alone or combined with rifampin; rifampin resistant MRSA strain; FIG. 2
Protocol: Following antibiotics were used: • 100 μg/ml vancomycin • 10 μg/ml rifampin • 100 μg/ml fosfomycin • 10 μg/ml rifampin+100 μg/ml fosfomycin • 10 μg/ml rifampin+100 μg/ml vancomycin.
After incubation for 24 h 100 μl of the cell culture were streaked out on Caso agar plates (Casein-peptone soymeal-peptone broth) directly, e.g. in case of vancomycin, rifampin/fosfomycin and rifampin/vancomycin, or after appropriate dilution, e.g. 1:100 in case of rifampin and fosfomycin, and incubated overnight at 37° C. The supernatant of two wells per group was streaked out.

[6] = in vivo; cited from earlier work
[7] = test system: S. aureus; details: drug concentration-dependent; cited from earlier work
[8] = test system: S. aureus BAA44; assay: Adhesion of bacteria on coated titanium discs, CFU per disc; format: cell-based, Staphylococcus aureus; details: 1.5 h, 200 μg/cm^2 vancomycin or 50 μg/cm^2 rifampin + 200 μg/cm^2 fosfomycin calcium, FIG. 5c
Protocol: The experimental set up was essentially the same as described above for S. aureus ATTC 6538P.
The coated titanium discs were washed either once or twice with 5 ml PBS before incubation with S. aureus BAA44 for 1.5 h.

[9] = test system: S. aureus ATTC 6538P; details: 200 μg/cm^2 vancomycin, FIG. 5a
Protocol: An overnight culture of S. aureus ATTC 6538P was prepared by infecting 5 ml Caso-Bouillon medium with S. aureus ATTC 6538P. The cultures were incubated with shaking (450 U/min) over night at 37° C. 100 μl of the overnight cultures were transferred into 5 ml Caso Boulillon medium and incubated for 2 h at 37° C. with shaking (450 U/min). The bacterial density was determined photometrically. The bacterial suspension was diluted 1:2 in Caso Bouillon prior measurement. A bacterial suspension with a density of 1×10^5 CFU/ml in Caso Boullion with 10% FCS was used for the adhesion experiments.
After coating the titanium discs were washed either one time or three times with PBS. The coated and uncoated titanium discs were incubated for 5 min at room temperature with 5 ml PBS. This was repeated two more times. In the third circle the titanium discs were incubated for 1 h at room temperature. Before removing the PBS solution the titanium discs were turned or swiveled in order to increase the detachment of the antibiotics. Afterwards the titanium discs were transferred into sterile 12 well plates. […]
Afterwards the bacterial suspension was removed and the discs were washed three times with 2.5 ml PBS. […] The agar plates were incubated over night at 37° C. and the next day the colonies were counted.

[10] = test system: S. aureus BAA44; assay: Bactericidal activity of coated titanium discs in Minimal Medium, CFU in supernatant and on discs; format: cell-based, Staphylococcus aureus; details: 15.5 h in Minimal Medium, discs washed three times
Protocol: The bacterial density was determined photometrically.
The Minimal Medium was used instead of Caso Bouillon to minimize the bacterial growth.
Afterwards the CFU in the supernatant as well as the adhered bacteria on the titanium discs were analysed. The supernatant was diluted 1:10 in PBS, 100 μl of the dilution were streaked out on Caso agar plates.

[11] = 100 μg/ml vancomycin, 100 μg/ml gentamicin, 0.01-100 μg/ml rifampin, 1 μg/ml rifampin + 100 μg/ml fosfomycin or gentamicin, FIG. 3a-d
[12] = 2.5 μg/ml rifampin, 50 μg/ml vancomycin

CCCCCCCCCC(=O)N[C@@H](Cc1c[nH]c2ccccc12)C(=O)N[C@H](CC(N)=O)C(=O)N[C@@H](CC(=O)O)C(=O)N[C@@H]1C(=O)NCC(=O)N[C@@H](CCCN)C(=O)N[C@@H](CC(=O)O)C(=O)N[C@H](C)C(=O)N[C@@H](CC(=O)O)C(=O)NCC(=O)N[C@H](CO)C(=O)N[C@@H]([C@H](C)CC(=O)O)C(=O)N[C@@H](CC(=O)c2ccccc2N)C(=O)O[C@@H]1C [daptomycin]
effect on CFU per well of intracellular and adhered S. aureus BAA44 ([1]; 1.25 μg/ml daptomycin): good efficacy | effect on CFU per well of intracellular and adhered S. aureus BAA44 ([1]; 2.5 μg/ml daptomycin): good efficacy | effect on CFU per well of intracellular and adhered S. aureus BAA44 ([1]; 5 μg/ml daptomycin): eradicate the infection completely | effect on CFU per well of intracellular and adhered S. aureus BAA44 ([1]; 10 μg/ml daptomycin): eradicate the infection completely

C[C@@H]1O[C@@H]1P(=O)(O)O [fosfomycin]
metabolic activity of infected osteoblastic MG63 cells ([2]; 10 μg/ml fosfomycin, FIG. 3b): increases the metabolic activity only slightly | metabolic activity of infected osteoblastic MG63 cells ([2]; 100 μg/ml fosfomycin, FIG. 3b): almost doubled | effect on CFU per well of intracellular located S. aureus BAA44 [3]: good efficacy | effect on CFU of S. aureus ATTC 6538P in cell culture supernatant [4]: moderate | effect on CFU of S. aureus BAA44 in cell culture supernatant [5]: relatively small | concentrations allowing for intravenous application [6]: 100 to 400 µg/mL | concentrations allowing for intravenous application, preferred, in serum [6]: 132 to 297 µg/mL

CO[C@H]1/C=C/O[C@@]2(C)Oc3c(C)c(O)c4c(O)c(c(/C=N/N5CCN(C)CC5)c(O)c4c3C2=O)NC(=O)/C(C)=C\C=C\[C@H](C)[C@H](O)[C@@H](C)[C@@H](O)[C@@H](C)[C@H](OC(C)=O)[C@@H]1C [rifampin]
metabolic activity of infected osteoblastic MG63 cells [2, 11]: reduce the cell death caused by S. aureus ATTC 6538P drastically | concentration sufficient in increasing the metabolic activity ([2]; FIG. 3a): 0.006 µg/mL | effect on CFU per well of intracellular located S. aureus BAA44 [3]: good intracellular potency | effect on CFU of S. aureus ATTC 6538P in cell culture supernatant [4]: moderate | overgrowth of the MG63 cells with planktonic S. aureus BAA44 ([1]; 2.5 μg rifampin, data not shown): prevented efficacious | effect on CFU per well of intracellular and adhered S. aureus BAA44 [1, 12]: less than for vancomycin and daptomycin | effect on CFU of S. aureus BAA44 in cell culture supernatant [5]: hardly any efficacy

O=C(O)c1ccccc1O [salicylic acid]
maximum reduction of S. aureus virulence parameters [7]: approximately 50%

CN[C@H](CC(C)C)C(=O)N[C@H]1C(=O)N[C@@H](CC(N)=O)C(=O)N[C@H]2C(=O)N[C@H]3C(=O)N[C@H](C(=O)N[C@H](C(=O)O)c4cc(O)cc(O)c4-c4cc3ccc4O)[C@H](O)c3ccc(c(Cl)c3)Oc3cc2cc(c3O[C@@H]2O[C@H](CO)[C@@H](O)[C@H](O)[C@H]2O[C@H]2C[C@](C)(N)[C@H](O)[C@H](C)O2)Oc2ccc(cc2Cl)[C@H]1O [vancomycin]
metabolic activity of infected osteoblastic MG63 cells [2, 11]: strongly reduced | anti-adhesive effect, CFU per titanium disc ([8]; discs washed once): reduced the adhesion | anti-adhesive effect, CFU per titanium disc ([8]; discs washed twice): no reduction of bacterial adhesion | anti-adhesive effect, CFU per titanium disc ([9]; discs washed one time before 1.5 h incubation): anti-adhesive effect after one washing step | anti-adhesive effect, CFU per titanium disc ([9]; discs washed three times before 1.5 h incubation): did not reveal any anti-adhesive effect | effect on CFU per well of intracellular and adhered S. aureus BAA44 [1, 12]: several hundred | bactericidal effect of the coating [10]: could not exhibit any bactericidal effect | CFU in the supernatant ([10]; 200 μg/cm^2 vancomycin or 300 μg/cm^2 fosfomycin calcium + 70 μg/cm^2 rifampin, FIG. 5d): reduced the bacterial growth in the cell culture supernatant compared to the uncoated control slightly | CFU adhered to the titanium disc ([10]; FIG. 5d): more than 50,000 CFU
